Experiments:
Test in all cases: PRESTO-Tango GPCR screen
Format in all cases: cell-based
Settings in all cases: 100 µM
[1] = molecular target: T1, ADRA1B (Homo sapiens, UniProt P35368)
T1 construct: purchased PRESTO-Tango GPCR kit (Roth lab / Addgene)
Method in brief: (§1)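 Screening was done at 100 μM final ligand concentration, applied for 20 h to HTLA cells transiently expressing the individual GPCR-Tango construct. Readout: Bright-Glo luminescence, normalised as fold of PBS control.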

[2] = molecular target: T2, ADRA2A (Homo sapiens, UniProt P08913)
T2 construct: purchased PRESTO-Tango GPCR kit (Roth lab / Addgene)
Method in brief: as §1

[3] = molecular target: T3, ADRA2B (Homo sapiens, UniProt P18089)
T3 construct: purchased PRESTO-Tango GPCR kit (Roth lab / Addgene)
T3 sequence (P18089 whole entry): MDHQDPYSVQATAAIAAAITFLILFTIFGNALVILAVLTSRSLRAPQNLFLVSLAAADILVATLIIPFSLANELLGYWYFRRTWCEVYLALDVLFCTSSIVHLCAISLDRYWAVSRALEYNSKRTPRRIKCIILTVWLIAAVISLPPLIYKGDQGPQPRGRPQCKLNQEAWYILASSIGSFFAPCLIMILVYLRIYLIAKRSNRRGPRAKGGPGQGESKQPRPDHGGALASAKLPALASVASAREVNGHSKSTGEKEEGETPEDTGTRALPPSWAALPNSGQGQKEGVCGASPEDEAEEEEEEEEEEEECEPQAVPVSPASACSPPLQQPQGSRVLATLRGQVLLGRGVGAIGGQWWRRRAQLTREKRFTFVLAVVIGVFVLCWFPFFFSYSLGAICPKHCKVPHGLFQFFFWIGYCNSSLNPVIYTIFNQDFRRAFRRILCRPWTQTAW
Method in brief: as §1

[4] = molecular target: T4, AGTR1 (Homo sapiens, UniProt P30556)
T4 construct: purchased PRESTO-Tango GPCR kit (Roth lab / Addgene)
T4 sequence (P30556 whole entry): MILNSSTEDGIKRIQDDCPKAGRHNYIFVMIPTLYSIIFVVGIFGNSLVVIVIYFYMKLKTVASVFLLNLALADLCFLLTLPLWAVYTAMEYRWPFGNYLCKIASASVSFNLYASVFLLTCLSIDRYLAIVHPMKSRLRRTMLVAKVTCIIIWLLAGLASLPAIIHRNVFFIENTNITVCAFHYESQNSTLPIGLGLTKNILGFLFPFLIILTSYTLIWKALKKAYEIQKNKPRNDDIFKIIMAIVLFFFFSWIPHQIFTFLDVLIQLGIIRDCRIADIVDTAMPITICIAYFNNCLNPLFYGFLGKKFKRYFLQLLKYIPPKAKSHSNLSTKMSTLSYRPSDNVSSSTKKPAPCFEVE
Method in brief: as §1

[5] = molecular target: T5, APJ (Homo sapiens, UniProt P35414)
T5 construct: purchased PRESTO-Tango GPCR kit (Roth lab / Addgene)
Method in brief: as §1

[6] = molecular target: T6, AVPR2 (Homo sapiens, UniProt P30518)
T6 construct: purchased PRESTO-Tango GPCR kit (Roth lab / Addgene)
Method in brief: as §1

[7] = molecular target: T7, CCRL2 (Homo sapiens, UniProt O00421)
T7 construct: purchased PRESTO-Tango GPCR kit (Roth lab / Addgene)
Method in brief: as §1

[8] = molecular target: T8, F2R (Homo sapiens, UniProt P25116)
T8 construct: purchased PRESTO-Tango GPCR kit (Roth lab / Addgene)
T8 sequence (P25116 22-425): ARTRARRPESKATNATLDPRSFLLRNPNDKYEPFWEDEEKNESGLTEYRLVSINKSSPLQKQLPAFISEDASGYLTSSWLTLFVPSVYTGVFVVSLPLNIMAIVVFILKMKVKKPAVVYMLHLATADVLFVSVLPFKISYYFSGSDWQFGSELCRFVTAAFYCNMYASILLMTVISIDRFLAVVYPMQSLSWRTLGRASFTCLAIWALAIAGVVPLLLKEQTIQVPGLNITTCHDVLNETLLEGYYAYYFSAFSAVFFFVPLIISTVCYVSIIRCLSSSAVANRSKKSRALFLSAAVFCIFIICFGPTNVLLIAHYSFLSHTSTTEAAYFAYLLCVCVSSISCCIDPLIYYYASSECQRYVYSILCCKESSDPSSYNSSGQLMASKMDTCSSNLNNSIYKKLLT
Method in brief: as §1

[9] = molecular target: T9, GCGR (Homo sapiens, UniProt P47871)
T9 construct: purchased PRESTO-Tango GPCR kit (Roth lab / Addgene)
Method in brief: as §1

[10] = molecular target: T10, GPR113 (Homo sapiens, UniProt Q8IZF5)
T10 construct: purchased PRESTO-Tango GPCR kit (Roth lab / Addgene)
T10 sequence (Q8IZF5 26-1079): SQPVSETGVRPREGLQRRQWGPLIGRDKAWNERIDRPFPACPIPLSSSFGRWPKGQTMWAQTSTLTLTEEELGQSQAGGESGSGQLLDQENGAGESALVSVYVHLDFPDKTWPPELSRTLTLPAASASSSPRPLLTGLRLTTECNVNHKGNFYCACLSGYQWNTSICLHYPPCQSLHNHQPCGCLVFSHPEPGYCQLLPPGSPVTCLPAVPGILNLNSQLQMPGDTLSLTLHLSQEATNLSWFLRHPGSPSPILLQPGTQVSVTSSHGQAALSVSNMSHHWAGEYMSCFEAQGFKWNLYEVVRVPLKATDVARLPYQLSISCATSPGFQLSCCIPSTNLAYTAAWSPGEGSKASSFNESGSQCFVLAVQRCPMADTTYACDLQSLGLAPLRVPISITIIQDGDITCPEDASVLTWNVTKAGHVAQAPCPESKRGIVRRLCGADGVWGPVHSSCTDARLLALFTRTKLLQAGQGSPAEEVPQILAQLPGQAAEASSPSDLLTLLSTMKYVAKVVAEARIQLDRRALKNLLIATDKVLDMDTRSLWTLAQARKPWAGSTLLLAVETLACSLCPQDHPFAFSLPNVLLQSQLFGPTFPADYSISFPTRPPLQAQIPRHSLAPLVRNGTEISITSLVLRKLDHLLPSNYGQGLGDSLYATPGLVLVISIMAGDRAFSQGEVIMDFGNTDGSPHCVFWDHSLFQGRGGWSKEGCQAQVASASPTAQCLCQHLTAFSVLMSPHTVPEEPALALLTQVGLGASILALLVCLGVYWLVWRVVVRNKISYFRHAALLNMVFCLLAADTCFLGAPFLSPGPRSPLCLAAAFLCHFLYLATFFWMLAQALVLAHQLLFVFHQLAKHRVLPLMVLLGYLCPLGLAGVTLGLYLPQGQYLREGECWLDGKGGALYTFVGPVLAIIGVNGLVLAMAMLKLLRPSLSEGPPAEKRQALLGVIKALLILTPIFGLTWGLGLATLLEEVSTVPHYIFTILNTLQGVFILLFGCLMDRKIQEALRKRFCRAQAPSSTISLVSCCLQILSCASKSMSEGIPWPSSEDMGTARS
Method in brief: as §1

[11] = molecular target: T11, GPR114 (Homo sapiens, UniProt Q8IZF4)
T11 construct: purchased PRESTO-Tango GPCR kit (Roth lab / Addgene)
Method in brief: as §1

[12] = molecular target: T12, GPR123 (Homo sapiens, UniProt Q86SQ6)
T12 construct: purchased PRESTO-Tango GPCR kit (Roth lab / Addgene)
Method in brief: as §1

[13] = molecular target: T13, GPR126 (Homo sapiens, UniProt Q86SQ4)
T13 construct: purchased PRESTO-Tango GPCR kit (Roth lab / Addgene)
Method in brief: as §1

[14] = molecular target: T14, GPR148 (Homo sapiens, UniProt Q8TDV2)
T14 construct: purchased PRESTO-Tango GPCR kit (Roth lab / Addgene)
Method in brief: as §1

[15] = molecular target: T15, GPR20 (Homo sapiens, UniProt Q99678)
T15 construct: purchased PRESTO-Tango GPCR kit (Roth lab / Addgene)
Method in brief: as §1

[16] = molecular target: T16, GPR39 (Homo sapiens, UniProt O43194)
T16 construct: purchased PRESTO-Tango GPCR kit (Roth lab / Addgene)
T16 sequence (O43194 whole entry): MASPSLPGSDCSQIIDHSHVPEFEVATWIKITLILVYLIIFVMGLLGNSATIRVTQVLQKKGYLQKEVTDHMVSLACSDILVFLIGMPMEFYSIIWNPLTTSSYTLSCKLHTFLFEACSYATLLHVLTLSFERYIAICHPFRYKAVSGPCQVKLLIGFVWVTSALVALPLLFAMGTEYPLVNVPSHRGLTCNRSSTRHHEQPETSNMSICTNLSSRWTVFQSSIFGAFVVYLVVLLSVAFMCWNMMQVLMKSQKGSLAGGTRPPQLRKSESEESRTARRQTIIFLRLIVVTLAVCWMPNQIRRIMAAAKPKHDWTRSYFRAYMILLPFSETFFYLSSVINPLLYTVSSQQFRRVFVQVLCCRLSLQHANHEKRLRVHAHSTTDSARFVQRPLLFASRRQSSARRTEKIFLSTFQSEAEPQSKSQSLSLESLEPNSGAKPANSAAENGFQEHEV
Method in brief: as §1

[17] = molecular target: T17, GPR61 (Homo sapiens, UniProt Q9BZJ8)
T17 construct: purchased PRESTO-Tango GPCR kit (Roth lab / Addgene)
Method in brief: as §1

[18] = molecular target: T18, GPR68 (Homo sapiens, UniProt Q15743)
T18 construct: purchased PRESTO-Tango GPCR kit (Roth lab / Addgene)
T18 sequence (Q15743 whole entry): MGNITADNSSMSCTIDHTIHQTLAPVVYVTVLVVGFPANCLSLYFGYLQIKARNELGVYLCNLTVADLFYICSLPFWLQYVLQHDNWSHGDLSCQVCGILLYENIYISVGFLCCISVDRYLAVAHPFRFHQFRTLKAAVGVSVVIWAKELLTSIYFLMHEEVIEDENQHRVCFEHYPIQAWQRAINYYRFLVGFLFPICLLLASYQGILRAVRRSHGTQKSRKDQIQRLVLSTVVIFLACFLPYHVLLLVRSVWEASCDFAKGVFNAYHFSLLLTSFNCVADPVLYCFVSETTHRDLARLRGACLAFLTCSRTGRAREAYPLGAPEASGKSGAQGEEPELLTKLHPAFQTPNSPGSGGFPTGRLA
Method in brief: as §1

[19] = molecular target: T19, GPRC5C (Homo sapiens, UniProt Q9NQ84)
T19 construct: purchased PRESTO-Tango GPCR kit (Roth lab / Addgene)
Method in brief: as §1

[20] = molecular target: T20, GPRC6A (Homo sapiens, UniProt Q5T6X5)
T20 construct: purchased PRESTO-Tango GPCR kit (Roth lab / Addgene)
Method in brief: as §1

[21] = molecular target: T21, GRM4 (Homo sapiens, UniProt Q14833)
T21 construct: purchased PRESTO-Tango GPCR kit (Roth lab / Addgene)
Method in brief: as §1

[22] = molecular target: T22, HTR1E (Homo sapiens, UniProt P28566)
T22 construct: purchased PRESTO-Tango GPCR kit (Roth lab / Addgene)
T22 sequence (P28566 whole entry): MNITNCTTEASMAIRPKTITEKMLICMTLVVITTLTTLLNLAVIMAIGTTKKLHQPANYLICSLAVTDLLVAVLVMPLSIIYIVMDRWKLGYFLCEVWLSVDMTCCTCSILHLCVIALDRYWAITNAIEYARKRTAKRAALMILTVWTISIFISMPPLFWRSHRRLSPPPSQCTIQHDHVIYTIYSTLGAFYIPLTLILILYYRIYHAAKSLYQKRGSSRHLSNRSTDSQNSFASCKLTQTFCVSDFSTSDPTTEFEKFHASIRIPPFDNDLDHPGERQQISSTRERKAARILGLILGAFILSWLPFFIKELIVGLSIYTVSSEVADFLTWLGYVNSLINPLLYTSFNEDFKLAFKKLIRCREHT
Method in brief: as §1

[23] = molecular target: T23, LTB4R2B (Homo sapiens, UniProt Q9NPC1)
T23 construct: purchased PRESTO-Tango GPCR kit (Roth lab / Addgene)
Method in brief: as §1

[24] = molecular target: T24, MC3R (Homo sapiens, UniProt P41968)
T24 construct: purchased PRESTO-Tango GPCR kit (Roth lab / Addgene)
T24 sequence (P41968 whole entry): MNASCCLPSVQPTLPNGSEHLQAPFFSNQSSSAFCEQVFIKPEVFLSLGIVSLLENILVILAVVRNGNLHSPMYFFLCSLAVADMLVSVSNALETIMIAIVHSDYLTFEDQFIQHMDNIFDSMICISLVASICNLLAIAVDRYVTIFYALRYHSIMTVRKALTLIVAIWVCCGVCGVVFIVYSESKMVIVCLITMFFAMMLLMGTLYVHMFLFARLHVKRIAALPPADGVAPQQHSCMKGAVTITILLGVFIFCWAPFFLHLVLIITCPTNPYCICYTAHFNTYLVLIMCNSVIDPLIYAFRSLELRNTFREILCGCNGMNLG
Method in brief: as §1

[25] = molecular target: T25, MC4R (Homo sapiens, UniProt P32245)
T25 construct: purchased PRESTO-Tango GPCR kit (Roth lab / Addgene)
Method in brief: as §1

[26] = molecular target: T26, MRGPRX3 (Homo sapiens, UniProt Q96LB0)
T26 construct: purchased PRESTO-Tango GPCR kit (Roth lab / Addgene)
Method in brief: as §1

[27] = molecular target: T27, NPY5R (Homo sapiens, UniProt Q15761)
T27 construct: purchased PRESTO-Tango GPCR kit (Roth lab / Addgene)
Method in brief: as §1

[28] = molecular target: T28, OPRD1 (Homo sapiens, UniProt P41143)
T28 construct: purchased PRESTO-Tango GPCR kit (Roth lab / Addgene)
Method in brief: as §1

[29] = molecular target: T29, PRRP (Homo sapiens, UniProt P49683)
T29 construct: purchased PRESTO-Tango GPCR kit (Roth lab / Addgene)
Method in brief: as §1

[30] = molecular target: T30, PTGER2 (Homo sapiens, UniProt P43116)
T30 construct: purchased PRESTO-Tango GPCR kit (Roth lab / Addgene)
T30 sequence (P43116 whole entry): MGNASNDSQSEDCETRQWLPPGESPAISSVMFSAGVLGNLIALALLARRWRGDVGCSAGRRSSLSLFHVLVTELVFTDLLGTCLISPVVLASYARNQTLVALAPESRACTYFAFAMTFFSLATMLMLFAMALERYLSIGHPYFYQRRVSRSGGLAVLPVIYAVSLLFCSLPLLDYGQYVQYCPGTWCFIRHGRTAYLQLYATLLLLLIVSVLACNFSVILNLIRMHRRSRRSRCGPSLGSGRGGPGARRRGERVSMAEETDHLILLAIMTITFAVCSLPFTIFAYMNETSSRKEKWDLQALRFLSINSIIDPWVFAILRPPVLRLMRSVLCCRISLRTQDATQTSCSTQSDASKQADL
Method in brief: as §1

[31] = molecular target: T31, PTGFR (Homo sapiens, UniProt P43088)
T31 construct: purchased PRESTO-Tango GPCR kit (Roth lab / Addgene)
T31 sequence (P43088 whole entry): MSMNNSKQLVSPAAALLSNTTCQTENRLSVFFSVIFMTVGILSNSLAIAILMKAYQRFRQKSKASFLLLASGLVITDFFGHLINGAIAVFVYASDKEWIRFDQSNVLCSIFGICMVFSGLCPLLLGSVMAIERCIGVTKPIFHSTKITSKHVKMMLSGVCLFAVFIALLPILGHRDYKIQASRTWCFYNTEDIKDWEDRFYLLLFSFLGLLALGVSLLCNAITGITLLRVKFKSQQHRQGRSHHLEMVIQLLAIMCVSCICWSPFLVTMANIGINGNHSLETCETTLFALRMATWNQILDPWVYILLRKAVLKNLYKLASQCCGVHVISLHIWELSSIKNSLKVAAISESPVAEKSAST
Method in brief: as §1

[32] = molecular target: T32, RXFP1 (Homo sapiens, UniProt Q9HBX9)
T32 construct: purchased PRESTO-Tango GPCR kit (Roth lab / Addgene)
Method in brief: as §1

[33] = molecular target: T33, SCTR (Homo sapiens, UniProt P47872)
T33 construct: purchased PRESTO-Tango GPCR kit (Roth lab / Addgene)
T33 sequence (P47872 23-440): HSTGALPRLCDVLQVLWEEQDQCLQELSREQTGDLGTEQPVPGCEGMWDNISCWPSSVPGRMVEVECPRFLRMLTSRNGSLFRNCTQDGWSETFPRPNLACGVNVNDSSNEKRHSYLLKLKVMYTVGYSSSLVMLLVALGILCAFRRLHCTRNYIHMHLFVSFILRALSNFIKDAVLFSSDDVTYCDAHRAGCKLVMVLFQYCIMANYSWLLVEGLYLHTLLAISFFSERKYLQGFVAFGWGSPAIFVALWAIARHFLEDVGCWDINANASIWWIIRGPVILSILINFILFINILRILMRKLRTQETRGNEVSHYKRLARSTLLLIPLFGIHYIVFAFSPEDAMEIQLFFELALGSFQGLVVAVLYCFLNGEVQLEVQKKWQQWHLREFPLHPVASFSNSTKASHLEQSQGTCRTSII
Method in brief: as §1

[34] = molecular target: T34, SSTR1 (Homo sapiens, UniProt P30872)
T34 construct: purchased PRESTO-Tango GPCR kit (Roth lab / Addgene)
Method in brief: as §1

[35] = molecular target: T35, TAAR2 (Homo sapiens, UniProt Q9P1P5)
T35 construct: purchased PRESTO-Tango GPCR kit (Roth lab / Addgene)
Method in brief: as §1

[36] = molecular target: T36, TACR3 (Homo sapiens, UniProt P29371)
T36 construct: purchased PRESTO-Tango GPCR kit (Roth lab / Addgene)
Method in brief: as §1

Structure (SMILES) | GPCR activation (heatmap value) [1] | GPCR activation (heatmap value) [2] | GPCR activation (heatmap value) [3] | GPCR activation (heatmap value) [4] | GPCR activation (heatmap value) [5] | GPCR activation (heatmap value) [6] | GPCR activation (heatmap value) [7] | GPCR activation (heatmap value) [8] | GPCR activation (heatmap value) [9] | GPCR activation (heatmap value) [10] | GPCR activation (heatmap value) [11] | GPCR activation (heatmap value) [12] | GPCR activation (heatmap value) [13] | GPCR activation (heatmap value) [14] | GPCR activation (heatmap value) [15] | GPCR activation (heatmap value) [16] | GPCR activation (heatmap value) [17] | GPCR activation (heatmap value) [18] | GPCR activation (heatmap value) [19] | GPCR activation (heatmap value) [20] | other results
CC(C)Cc1ncc(CCCCNC(=N)N)[nH]c1=O [3-Homo] | -0.4471 | -0.8336 | -0.5041 | 0.01764 | 0.4932 | 0.2692 | 0.009703 | -0.4507 | 0.3222 | -0.1784 | 0.07141 | -0.1319 | 0.0787 | 0.1551 | 0.638 | 0.5643 | 1.164 | -0.3643 | 0.07279 | -1.019 | GPCR activation (heatmap value) [21]: -0.1574; GPCR activation (heatmap value) [22]: 0.001914; GPCR activation (heatmap value) [23]: 0.02731; GPCR activation (heatmap value) [24]: -0.2762; GPCR activation (heatmap value) [25]: -0.9791; GPCR activation (heatmap value) [26]: -1.005; GPCR activation (heatmap value) [27]: -0.26; GPCR activation (heatmap value) [28]: -0.6579; GPCR activation (heatmap value) [29]: 1.001; GPCR activation (heatmap value) [30]: -0.3082; GPCR activation (heatmap value) [31]: 0.3992; GPCR activation (heatmap value) [32]: -0.5413; GPCR activation (heatmap value) [33]: -0.8565; GPCR activation (heatmap value) [34]: -0.2346; GPCR activation (heatmap value) [35]: 0.3187; GPCR activation (heatmap value) [36]: -0.1118
CC(C)Cc1ncc(CCCNC(=N)N)[nH]c1=O [compound 3] | 0.1702 | 0.08001 | 2.203 | 0.0619 | 0.6044 | -1.811 | 0.3717 | -0.02389 | 0.3476 | -0.04557 | 0.003235 | -0.4576 | -0.3797 | 0.6105 | 1.634 | 0.8238 | 0.4932 | 0.3673 | 0.188 | -0.9035 | GPCR activation (heatmap value) [21]: -0.2331; GPCR activation (heatmap value) [22]: 0.5345; GPCR activation (heatmap value) [23]: -1.038; GPCR activation (heatmap value) [24]: 0.4161; GPCR activation (heatmap value) [25]: 0.1054; GPCR activation (heatmap value) [26]: -1.319; GPCR activation (heatmap value) [27]: 0.08813; GPCR activation (heatmap value) [28]: 1.451; GPCR activation (heatmap value) [29]: 1.542; GPCR activation (heatmap value) [30]: -0.3243; GPCR activation (heatmap value) [31]: 0.901; GPCR activation (heatmap value) [32]: -0.4212; GPCR activation (heatmap value) [33]: -0.3327; GPCR activation (heatmap value) [34]: 0.2369; GPCR activation (heatmap value) [35]: 0.1553; GPCR activation (heatmap value) [36]: -0.7714

Reference: publication PMC11480411, “Mucosal sugars delineate pyrazine vs pyrazinone autoinducer signaling in Klebsiella oxytoca” (Nature Communications, 2024)
